Reference: patent US12448388B2, “PRMT5 inhibitors and uses thereof” (Gilead Sciences, Inc., priority 2023, dated 2025)
pEC50: −log10 of the molar value.

Key:
[1] = test system: HCT116 MTAP-deleted cell lines; experiment: Cell viability assay (CellTiter-Glo, 7 days), HCT116 MTAP-deleted; assay type: cell-based; conditions: Homo sapiens, HCT-116; cell viability, HCT116 MTAP-deleted; class symbols; read-out: CC50
Outline: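 First, compounds are serially diluted in DMSO and dispensed into plates, which are frozen until seeding. Next, cells are added and incubated 7 days at 37 °C, 5% CO2, 90% humidity. Finally, CellTiter-Glo reagent is added and luminescence is measured to derive CC50.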

[2] = test system: Symmetric Di-methyl Arginine (SDMA) signal (PRMT5 inhibition) in HCT116 MTAP-deleted cells; experiment: Symmetric di-methyl arginine image-based high content screen assay (SDMA assay), HCT116 MTAP-deleted; assay type: cell-based; conditions: for EC50 selectivity: HCT116 WT versus HCT116 MTAP-deleted; for pEC50: Homo sapiens, HCT-116, HCT116 MTAP-deleted, class symbols
Outline: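 Read-out is imaging of per-cell mean SDMA immunofluorescence (Alexa 488), with cells segmented by DAPI. Cells, MTAP-deleted or wild-type HCT116, were exposed to compound for 3 days at 37 °C before fixation. EC50 derived by 4-parameter non-linear logistic regression.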

Row | Compound | EC50 selectivity [2] | pEC50 [2] | CC50 [1] [nM]
1 | CN(Cc1ccc(Cl)cc1C#N)C(=O)c1cc2c(cc1F)nc(N)c1cncn12 [Ff-32, 4-amino-N-(4-chloro-2-cyanobenzyl)-7-fluoro-N-methylimidazo[1,5-a]quinoxaline-8-carboxamide] | 346 | 8.30 to 9.00 | 100 to 1000
2 | Cc1ncn2c(N)nc3cc(F)c(C(=O)N(Cc4ccc(C(F)(F)F)cn4)[C@H](C)c4ncccn4)cc3c12 [Ff-54, (R)-5-amino-8-fluoro-1-methyl-N-(1-(pyrimidin-2-yl)ethyl)-N-((5-(trifluoromethyl)pyridin-2-yl)methyl)imidazo[1,5-c]quinazoline-9-carboxamide] | 95 | 8.30 to 9.00 | < 100
3 | CN(C(=O)c1cc2c(cc1F)nc(N)c1cncn12)[C@@H]1CC2(CC2)c2cc(C(F)(F)F)ccc21 [Ff-58, (R)-4-amino-7-fluoro-N-methyl-N-(6′-(trifluoromethyl)-2′,3′-dihydrospiro[cyclopropane-1,1′-inden]-3′-yl)imidazo[1,5-a]quinoxaline-8-carboxamide] | 166 | 8.30 to 9.00 | < 100
4 | Cc1ncc2c(N)nc3ccc(C(=O)N4CCC5(CC4)CC(=O)c4ccccc4O5)cc3n12 [Ff-60, 1′-(4-amino-1-methylimidazo[1,5-a]quinoxaline-8-carbonyl)spiro[chromane-2,4′-piperidin]-4-one] | 371 | < 8.30 | 100 to 1000
5 | C[C@H]1CN(C(=O)c2cc3c(cc2Cl)nc(N)c2cncn23)[C@@H](c2ccc(C(F)(F)F)cn2)CO1 [Ff-138, (4-amino-7-chloroimidazo[1,5-a]quinoxalin-8-yl)((2S,5S)-2-methyl-5-(5-(trifluoromethyl)pyridin-2-yl)morpholino)methanone] | 20 | ≥ 9.00 | < 100
6 | CN(C(=O)c1cc2c(cc1F)nc(N)c1cncn12)[C@@H]1COc2cc(N3CCOCC3)ccc21 [Ff-144, (S)-4-amino-7-fluoro-N-methyl-N-(6-morpholino-2,3-dihydrobenzofuran-3-yl)imidazo[1,5-a]quinoxaline-8-carboxamide] | 157 | 8.30 to 9.00 | < 100

More lines, main results first:

Row | EC50 selectivity [2] | pEC50 [2] | Compound | CC50 [1] [nM]
7 | 65 | 8.30 to 9.00 | Cc1ncc2c(N)nc3cc(F)c(C(=O)N(C)[C@@H]4COc5cc(C(F)(F)F)ccc54)cc3n12 [Ff-59, (S)-4-amino-7-fluoro-N,1-dimethyl-N-(6-(trifluoromethyl)-2,3-dihydrobenzofuran-3-yl)imidazo[1,5-a]quinoxaline-8-carboxamide] | < 100
8 | 178 | < 8.30 | Nc1nc2cc(F)c(C(=O)N3CC4CC(C3)c3ccccc34)cc2n2cncc12 [Ff-62, (4-amino-7-fluoroimidazo[1,5-a]quinoxalin-8-yl)(1,2,4,5-tetrahydro-3H-1,5-methanobenzo[d]azepin-3-yl)methanone] | > 1000
9 | 43 | ≥ 9.00 | C[C@H]1CN(C(=O)c2cc3c(cc2F)nc(N)c2cncn23)[C@H]2c3cc(F)c(Br)cc3C[C@H]2O1 [Ff-165, (4-amino-7-fluoroimidazo[1,5-a]quinoxalin-8-yl)((2S,4aS,9aR)-7-bromo-6-fluoro-2-methyl-2,3,9,9a-tetrahydroindeno[2,1-b][1,4]oxazin-4(4aH)-yl)methanone] | < 100
10 | 44 | 8.30 to 9.00 | Nc1nc2cc(F)c(C(=O)N3CCO[C@@H]4Cc5cc(C(F)F)ccc5[C@@H]43)cc2n2cncc12 [Ff-167, (4-amino-7-fluoroimidazo[1,5-a]quinoxalin-8-yl)((4aS,9aR)-7-(difluoromethyl)-2,3,9,9a-tetrahydroindeno[2,1-b][1,4]oxazin-4(4aH)-yl)methanone] | < 100
